≈ marks a conversion by molar mass, not a printed value.

For assay [1], the system named is Staphylococcus aureus 209 P. Kind of assay: In vitro antibacterial activity, MIC (standard strain). The format is cell-based. As to conditions: 10^6 cells/ml.
Another assay concerns K. pneumoniae KY(GN)6445. The description is as above. The format is cell-based. As to conditions: K. pneumoniae KY(GN)6445, 10^6 cells/ml, standard strain.
For assay [2], the system named is Serratia marcescens IID 618. The assay is described as above. It is filed as cell-based. As to conditions: Serratia marcescens IID 618, 10^6 cells/ml.
The subject of a further assay is P. aeruginosa IFO 12689. The assay is described as above. As to conditions: P. aeruginosa IFO 12689, 10^6 cells/ml, standard strain; listed as Exp.7. The format is cell-based.
Assay [3] deals with S. pneumoniae S-4288. The experiment in a line: MIC against the infecting strain (Table 2). The format is cell-based. As to conditions: Streptococcus pneumoniae, S4288; S. pneumoniae S-4288 (Table 2, part 4).
Assay [4] concerns S. pneumoniae S-4288. Kind of assay: In vivo antibacterial activity against systemic infection in mice. The arrangement: species or system mice (ICR-S). To be noted: Streptococcus pneumoniae, S4288; S. pneumoniae S-4288, mice (ICR-S), intraperitoneal infection, oral at 1 hour after infection, challenge dose 2.5 x 10^3 cfu/mouse; read-out: ED50. On the procedure: Experiment 2 In vivo antibacterial activity against systemic infection in mice (ICR-S)
The infections were produced by intraperitoneal infection of a suspension of the bacterial culture corresponding to the germ studied. The product was administered orally at 1 hour after the infection. The 50% effective dose (ED50) which protects 50% of the animals from death caused by the infection was determined from the relation between dosage and survival rate.

With `CC1CN(c2c(F)cc3c(=O)c(C(=O)O)cn(C4CC4)c3c2Cl)CCN1` (stereo not drawn) [Example 7, 8-Chloro-l-cyclopropyl-6-fluoro-l,4-dihydro-7-(3-methyl-l-piperazinyl)-4-oxoquinoline-3-carboxylic acid], the MIC in assay [1] was 0.10 µg/mL (≈ 0.263 µM); with K. pneumoniae KY(GN)6445, 0.025 µg/mL (≈ 0.0658 µM); in assay [2], 0.05 µg/mL (≈ 0.132 µM); against P. aeruginosa IFO 12689, 0.78 µg/mL (≈ 2.05 µM); against S. pneumoniae S-4288 [3] it was 0.78 µg/mL (≈ 2.05 µM). Further, the 50% effective dose (ED50) in the assay with S. pneumoniae S-4288 [4] worked out at 15.6 mg/kg.

The record behind these values is EP0178388A1, “Quinolinecarboxylic acid derivatives” (KYORIN PHARMACEUTICAL CO., LTD., priority 1984, dated 1986).
